Measured values: ChEMBL document CHEMBL5058564, “EUbOPEN Chemogenomics Library 2 (Incucyte)” (2022)

Experiments:
Format in all cases: toxicity, cell-based
[1] = system: Fibroblast; assay: Incucyte cell viability with human fibroblast; conditions: 10 µM, compound concentration 10 uM
[2] = system: HEK-293T; assay: Incucyte cell viability with HEK293T; conditions: human, 10 µM, compound concentration 10 uM
[3] = system: U2OS; assay: Incucyte cell viability with U2OS; conditions: human, 10 µM, compound concentration 10 uM
[4] = 0 h, replicate number 1, timepoint 0 hours
[5] = 0 h, replicate number 2, timepoint 0 hours
[6] = 6 h, replicate number 2, timepoint 6 hours
[7] = 18 h, replicate number 2, timepoint 18 hours
[8] = 24 h, replicate number 2, timepoint 24 hours
[9] = 6 h, replicate number 1, timepoint 6 hours
[10] = 12 h, replicate number 1, timepoint 12 hours
[11] = 12 h, replicate number 2, timepoint 12 hours
[12] = 18 h, replicate number 1, timepoint 18 hours
[13] = 24 h, replicate number 1, timepoint 24 hours
Note: unitless GR value; below 1 slowed growth and below 0 cell loss.

Row | Compound | Growth Rate [1, 4] | Growth Rate [1, 5] | Growth Rate [2, 5] | Growth Rate [3, 4] | Growth Rate [3, 5] | Growth Rate [3, 6] | Growth Rate [3, 7] | Growth Rate [1, 9] | Growth Rate [1, 10] | Growth Rate [1, 12] | Growth Rate [1, 7] | Growth Rate [1, 13] | Growth Rate [2, 9] | Growth Rate [2, 10] | Growth Rate [2, 11] | Growth Rate [2, 12] | Growth Rate [2, 7] | Growth Rate [2, 13] | Growth Rate [2, 8] | Growth Rate [3, 10] | further results
1 | Cc1c(CC(=O)O)c2cccnc2n1Cc1ccc(S(C)(=O)=O)cc1C(F)(F)F [FEVIPIPRANT] | 0.42 | 0.97 | 0.79 | -0.75 | -1 | 0.82 | 0.93 | – | – | – | – | – | – | – | – | – | – | – | – | – | Growth Rate [3, 8]: 0.88
2 | CCCCCCCCc1ccc(CCC(N)(CO)CO)cc1 [FINGOLIMOD] | – | – | – | – | – | -0.45 | – | -0.91 | -0.88 | -0.82 | -0.59 | -0.7 | -0.74 | -0.52 | -0.63 | -0.41 | -0.5 | -0.33 | -0.4 | -0.74 | Growth Rate [1, 6]: -0.95; Growth Rate [1, 11]: -0.71; Growth Rate [1, 8]: -0.42; Growth Rate [2, 6]: -0.91; Growth Rate [3, 9]: -0.97; Growth Rate [3, 11]: -0.31; Growth Rate [3, 12]: -0.23; Growth Rate [3, 13]: 0.13; Growth Rate [3, 8]: -0.13
3 | CN(C(=O)c1ccccc1)c1cc(N(C)c2ccc3c(c2)CCc2ccc(C(=O)NCCN4CCOCC4)cc2C3=O)ccc1F [FM-743] | 0.51 | 0.69 | – | 0.89 | 0.49 | 0.79 | 0.66 | -0.57 | -0.68 | -0.66 | -0.08 | -0.58 | -0.43 | -0.34 | -0.27 | -0.33 | -0.15 | -0.25 | -0.11 | – | Growth Rate [1, 6]: -0.35; Growth Rate [1, 11]: -0.23; Growth Rate [1, 8]: -0.28; Growth Rate [2, 6]: 0; Growth Rate [3, 11]: 0.72; Growth Rate [3, 12]: 0.81; Growth Rate [3, 13]: 0.74; Growth Rate [3, 8]: 0.53
4 | COc1cc2c(Oc3ccc(NC(=O)C4(C(=O)Nc5ccc(F)cc5)CC4)cc3F)ccnc2cc1OCCCN1CCOCC1 [FORETINIB] | – | – | – | – | – | -0.08 | 0.01 | -0.99 | -0.98 | -0.93 | -0.9 | -0.88 | -0.97 | -0.79 | -0.89 | -0.65 | -0.82 | -0.54 | -0.7 | -0.1 | Growth Rate [1, 6]: -1; Growth Rate [1, 11]: -0.95; Growth Rate [1, 8]: -0.91; Growth Rate [2, 6]: -0.98; Growth Rate [3, 9]: 0.16; Growth Rate [3, 11]: -0.03; Growth Rate [3, 12]: -0.03; Growth Rate [3, 13]: 0
5 | CN[C@@H]1CCc2[nH]c3ccc(C(N)=O)cc3c2C1.O.O=C(O)CCC(=O)O [FROVATRIPTAN SUCCINATE] | – | – | 0.02 | -0.34 | 0.89 | – | – | 0.36 | – | 0.81 | – | 0.66 | – | – | – | – | 0.94 | 0.98 | 0.82 | 0.48 | Growth Rate [2, 4]: -0.07; Growth Rate [2, 6]: 0.9; Growth Rate [3, 9]: 0.73; Growth Rate [3, 12]: 0.74; Growth Rate [3, 13]: 0.63
6 | CCCCCCCCc1ccc(CC[C@](N)(CO)COP(=O)(O)O)cc1 [FTY720-P] | – | – | 0.4 | 0.2 | -0.7 | 0.43 | 1 | 0.71 | 0.21 | 0.14 | 0.85 | 0.09 | -0.47 | -0.14 | 0.46 | 0.01 | 0.48 | 0.01 | 0.37 | 0.79 | Growth Rate [1, 8]: 0.65; Growth Rate [2, 6]: 0.66; Growth Rate [3, 9]: 0.87
7 | CN[C@@H](C)C(=O)N[C@H](C(=O)N1CCC[C@H]1C(=O)Nc1snnc1-c1ccccc1)C1CCCCC1 [GDC-0152] | 0.95 | 0.59 | 0.53 | -0.64 | 0.74 | – | – | -0.81 | -0.63 | -0.58 | -0.22 | -0.44 | 0.43 | 0.37 | 0.71 | 0.36 | 0.66 | 0.4 | 0.52 | 0.49 | Growth Rate [1, 6]: -0.33; Growth Rate [1, 11]: -0.17; Growth Rate [1, 8]: -0.21; Growth Rate [2, 4]: 0.68; Growth Rate [3, 9]: 0.5; Growth Rate [3, 12]: 0.87
8 | CSc1nc(NC2CCCC2)c([N+](=O)[O-])c(NC2CCCC2)n1 [GS-39783] | – | 0.9 | 0.78 | 0.05 | -1 | 0.83 | 0.75 | -0.14 | -0.14 | 0.18 | – | 0.19 | – | 0.97 | 0.85 | – | 0.92 | – | – | – | Growth Rate [1, 6]: 0.69; Growth Rate [2, 4]: 0.5; Growth Rate [3, 11]: 0.75; Growth Rate [3, 8]: 0.92
9 | CC(C)c1noc(N2CCC(COc3ccc(-c4ccc(S(C)(=O)=O)cc4)nc3)CC2)n1 [GSK-1292263] | -0.57 | 0.61 | – | -0.92 | -0.96 | – | 0.85 | – | – | 0.53 | 0.76 | – | -0.15 | 0.09 | 0.17 | 0.14 | 0.41 | 0.22 | 0.55 | – | Growth Rate [1, 6]: -0.06; Growth Rate [1, 11]: 0.41; Growth Rate [2, 6]: -0.07; Growth Rate [3, 11]: 0.96; Growth Rate [3, 12]: 0.91
10 | Cl.N=C(N)NC(=O)Cc1c(Cl)cccc1Cl [GUANFACINE HYDROCHLORIDE] | 0.58 | 0.01 | – | – | – | – | – | – | – | 0.88 | 0.92 | 0.38 | 0.87 | 0.84 | – | 0.76 | – | 0.76 | – | 0.99 | Growth Rate [1, 8]: 0.81; Growth Rate [2, 4]: 0.44; Growth Rate [3, 9]: 0.84
11 | O=C(O)CCc1ccc(NCc2cccc(Oc3ccccc3)c2)cc1 [GW9508] | -0.2 | 0.43 | 0.79 | – | 0.8 | 0.91 | 0.97 | – | 1 | – | – | – | – | – | – | – | – | 0.98 | – | 1 | –
